Earlier results as cited in article PMC7876056, “Population Pharmacokinetic Analysis of Yimitasvir in Chinese Healthy Volunteers and Patients With Chronic Hepatitis C Virus Infection” (Frontiers in Pharmacology, 2021).
Read-outs that look alike come from different tables or passages of the source.

Settings: cited from earlier work; for Time-varying ALT as covariate on PK: healthy volunteers and HCV patients
[1] = ref U.S. Food and Drug Administration, 2014
[2] = ref U.S. Food and Drug Administration, 2016

Structure (SMILES): COC(=O)N[C@H](C(=O)N1CCC[C@H]1c1nc(-c2ccc(-c3ccc(-c4c[nH]c([C@@H]5CCCN5C(=O)[C@@H](NC(=O)OC)C(C)C)n4)cc3)cc2)c[nH]1)C(C)C [daclatasvir]
- Time-varying ALT as covariate on CL/F (patient population only, ref Chan et al., 2017): significant covariate
- Effect of time-varying ALT on AUCss (ref Chan et al., 2017): small
- Gender effect on CL/F (ref Chan et al., 2017): lower CL/F values in females

Structure (SMILES): COC(=O)N[C@H](C(=O)N1CC2(CC2)C[C@H]1c1ncc(-c2ccc3c(c2)C(F)(F)c2cc(-c4ccc5nc([C@@H]6[C@H]7CC[C@H](C7)N6C(=O)[C@@H](NC(=O)OC)C(C)C)[nH]c5c4)ccc2-3)[nH]1)C(C)C [ledipasvir]
- Time-varying ALT as covariate on PK [1]: not identified as a significant covariate
- Effect of co-medication of sofosbuvir on PK profile (ref German et al., 2016): not affected by co-medication of sofosbuvir
- Gender effect on CL/F [1]: lower CL/F values in females

Structure (SMILES): COC[C@H]1C[C@@H](c2ncc(-c3ccc4c(c3)COc3cc5c(ccc6nc([C@@H]7CC[C@H](C)N7C(=O)[C@@H](NC(=O)OC)C(C)C)[nH]c65)cc3-4)[nH]2)N(C(=O)[C@H](NC(=O)OC)c2ccccc2)C1 [velpatasvir]
- Time-varying ALT as covariate on PK [2]: not identified as a significant covariate
- Effect of co-medication of sofosbuvir on PK profile (ref Brieva et al., 2017): not affected by co-medication of sofosbuvir
- Gender effect on CL/F [2]: lower CL/F values in females
